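Cells were grown in 96-well plates and exposed to each compound for 48 hours at five concentrations; endpoints were interpolated linearly between bracketing concentrations, or set to the highest concentration if not reached. GI50 = concentration required for 50% inhibition of growth.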 Calls of active or inactive are those of the source. No stated cut-off is given here; in the data, active = GI50 up to about 1.1 µM and inactive = higher.
How the values were obtained:
Assay in all cases: inhibition of tumour cell growth, NCI panel, 48 h
SN12C = test system: SN12C
OVCAR-8 = test system: OVCAR-8
CCRF-CEM = test system: CCRF-CEM
ACHN = test system: ACHN
OVCAR-5 = test system: OVCAR-5
MDA-MB-435 = test system: MDA-MB-435
786-0 = test system: 786-0
RPMI-8226 = test system: RPMI-8226
U-251 = test system: U-251
COLO 205 = test system: COLO 205
OVCAR-4 = test system: OVCAR-4
SF-295 = test system: SF-295
DU-145 = test system: DU-145
SF-268 = test system: SF-268
IGROV-1 = test system: IGROV-1
SR = test system: SR
Malme-3M = test system: Malme-3M
UO-31 = test system: UO-31
UACC-257 = test system: UACC-257
PC-3 = test system: PC-3
NCI/ADR-RES = test system: NCI/ADR-RES
HOP-92 = test system: HOP-92
TK-10 = test system: TK-10
SK-MEL-28 = test system: SK-MEL-28
MOLT-4 = test system: MOLT-4
MCF7 = test system: MCF7
BT-549 = test system: BT-549
CAKI-1 = test system: CAKI-1
UACC-62 = test system: UACC-62
NCI-H522 = test system: NCI-H522
SW-620 = test system: SW-620
KM12 = test system: KM12
NCI-H460 = test system: NCI-H460
SK-MEL-2 = test system: SK-MEL-2
HT-29 = test system: HT-29
HCT-116 = test system: HCT-116
EKVX = test system: EKVX
SNB-19 = test system: SNB-19
SNB-75 = test system: SNB-75
HOP-62 = test system: HOP-62
LOX IMVI = test system: LOX IMVI
MDA-N = test system: MDA-N
A549 = test system: A549
SK-OV-3 = test system: SK-OV-3
NCI-H23 = test system: NCI-H23
RXF 393 = test system: RXF 393
T47D = test system: T47D
Hs-578T = test system: Hs-578T
SK-MEL-5 = test system: SK-MEL-5
OVCAR-3 = test system: OVCAR-3
NCI-H226 = test system: NCI-H226
HL-60 = test system: HL-60
HCT-15 = test system: HCT-15
M14 = test system: M14
A498 = test system: A498
SF-539 = test system: SF-539

CCCCCCCCCCCC(=O)Oc1c(Cl)cc(Cl)c(OC(=O)C(=O)Oc2c(Cl)cc(Cl)c(OC(=O)CCCCCCCCCCC)c2Cl)c1Cl
GI50 (SN12C): > 100 µM (inactive)
GI50 (OVCAR-8): > 100 µM (inactive)
GI50 (CCRF-CEM): > 100 µM (inactive)
GI50 (ACHN): > 100 µM (inactive)
GI50 (OVCAR-5): > 100 µM (inactive)
GI50 (MDA-MB-435): > 100 µM (inactive)
GI50 (786-0): > 100 µM (inactive)
GI50 (RPMI-8226): > 100 µM (inactive)
GI50 (U-251): > 100 µM (inactive)
GI50 (COLO 205): > 100 µM (inactive)
GI50 (OVCAR-4): > 100 µM (inactive)
GI50 (SF-295): > 100 µM (inactive)
GI50 (DU-145): > 100 µM (inactive)
GI50 (SF-268): > 100 µM (inactive)
GI50 (IGROV-1): > 100 µM (inactive)
GI50 (SR): > 100 µM (inactive)
GI50 (Malme-3M): > 100 µM (inactive)
GI50 (UO-31): > 100 µM (inactive)
GI50 (UACC-257): > 100 µM (inactive)
GI50 (PC-3): > 100 µM (inactive)
GI50 (NCI/ADR-RES): > 100 µM (inactive)
GI50 (HOP-92): > 100 µM (inactive)
GI50 (TK-10): > 100 µM (inactive)
GI50 (SK-MEL-28): > 100 µM (inactive)
GI50 (MOLT-4): 46.6 µM (inactive)
GI50 (MCF7): > 100 µM (inactive)
GI50 (BT-549): > 100 µM (inactive)
GI50 (CAKI-1): > 100 µM (inactive)
GI50 (UACC-62): > 100 µM (inactive)
GI50 (NCI-H522): > 100 µM (inactive)
GI50 (SW-620): > 100 µM (inactive)
GI50 (KM12): > 100 µM (inactive)
GI50 (NCI-H460): > 100 µM (inactive)
GI50 (SK-MEL-2): > 10 µM (inactive)
GI50 (HT-29): > 100 µM (inactive)
GI50 (HCT-116): > 100 µM (inactive)
GI50 (EKVX): > 100 µM (inactive)
GI50 (SNB-19): > 100 µM (inactive)
GI50 (SNB-75): > 100 µM (inactive)
GI50 (HOP-62): > 100 µM (inactive)
GI50 (LOX IMVI): > 100 µM (inactive)
GI50 (MDA-N): > 100 µM (inactive)
GI50 (A549): > 100 µM (inactive)
GI50 (SK-OV-3): > 100 µM (inactive)
GI50 (NCI-H23): > 100 µM (inactive)
GI50 (RXF 393): > 100 µM (inactive)
GI50 (T47D): > 100 µM (inactive)
GI50 (Hs-578T): > 100 µM (inactive)
GI50 (SK-MEL-5): > 100 µM (inactive)

Cc1ccnc(NS(=O)(=O)c2ccc(N=[N+]=[N-])cc2)n1
GI50 (SN12C): > 100 µM (inactive)
GI50 (OVCAR-8): > 100 µM (inactive)
GI50 (CCRF-CEM): > 21.4 µM (inactive)
GI50 (ACHN): > 100 µM (inactive)
GI50 (OVCAR-3): > 100 µM (inactive)
GI50 (OVCAR-5): > 100 µM (inactive)
GI50 (MDA-MB-435): > 100 µM (inactive)
GI50 (786-0): > 100 µM (inactive)
GI50 (RPMI-8226): > 100 µM (inactive)
GI50 (U-251): > 100 µM (inactive)
GI50 (COLO 205): > 100 µM (inactive)
GI50 (NCI-H226): > 100 µM (inactive)
GI50 (OVCAR-4): > 100 µM (inactive)
GI50 (SF-295): > 100 µM (inactive)
GI50 (DU-145): > 100 µM (inactive)
GI50 (SF-268): > 100 µM (inactive)
GI50 (IGROV-1): > 100 µM (inactive)
GI50 (SR): 1.34 µM (inactive)
GI50 (Malme-3M): > 67.9 µM (inactive)
GI50 (UO-31): > 100 µM (inactive)
GI50 (UACC-257): > 100 µM (inactive)
GI50 (PC-3): > 100 µM (inactive)
GI50 (NCI/ADR-RES): > 100 µM (inactive)
GI50 (HL-60): > 46.9 µM (inactive)
GI50 (HCT-15): > 100 µM
GI50 (HOP-92): > 100 µM (inactive)
GI50 (TK-10): > 100 µM (inactive)
GI50 (SK-MEL-28): > 100 µM (inactive)
GI50 (MCF7): > 100 µM (inactive)
GI50 (BT-549): > 100 µM (inactive)
GI50 (CAKI-1): > 100 µM (inactive)
GI50 (UACC-62): > 100 µM (inactive)
GI50 (NCI-H522): > 100 µM (inactive)
GI50 (SW-620): > 100 µM (inactive)
GI50 (KM12): > 100 µM (inactive)
GI50 (NCI-H460): > 100 µM (inactive)
GI50 (M14): > 100 µM (inactive)
GI50 (A498): > 100 µM (inactive)
GI50 (SK-MEL-2): > 100 µM (inactive)
GI50 (HT-29): > 100 µM (inactive)
GI50 (HCT-116): > 100 µM (inactive)
GI50 (EKVX): > 100 µM (inactive)
GI50 (SF-539): > 100 µM (inactive)
GI50 (SNB-19): > 100 µM (inactive)
GI50 (SNB-75): > 100 µM (inactive)
GI50 (HOP-62): > 100 µM (inactive)
GI50 (LOX IMVI): > 100 µM (inactive)
GI50 (MDA-N): > 100 µM (inactive)
GI50 (A549): > 100 µM (inactive)
GI50 (SK-OV-3): > 100 µM (inactive)
GI50 (NCI-H23): > 100 µM (inactive)
GI50 (RXF 393): > 100 µM (inactive)
GI50 (T47D): > 100 µM (inactive)
GI50 (Hs-578T): > 100 µM (inactive)
GI50 (SK-MEL-5): > 100 µM (inactive)

Source: ChEMBL document CHEMBL1201862, “PubChem BioAssay data set” (2004)
